Laboratory results: patent US10258694B2, “Skin external preparation and skin irritation-reducing method” (priority 2014, dated 2019)

Tested on: three-dimensional skin model (EPI-212SIT)
Experiment: Irritation test using three-dimensional skin model, MTT relative viability (Test Example 1-5)
Type: cell-based
Settings: 60 min exposure, 42 h post-incubation, 0.5 and 1.0 mass % pitavastatin calcium, powder
Method: The following <5-A> to <5-G> were used as test materials to perform exposure of the epidermis to the test materials and irritation evaluation in the following manner in accordance with OECD TG439 (In Vitro skin irritation test) using a kit for skin irritation test approved by OECD (EPI-212SIT manufactured by KURABO).
The epidermis in the kit was pre-incubated overnight, and then 30 μL of the test material was added to the stratum corneum side of the epidermis, and a nylon mesh was placed with tweezers to expose the stratum corneum to the test material. When the test material was solid (<5-E> described below), 25 μL of DPBS was added to the stratum corneum, and immediately after that, 25 mg of the solid material was added to the stratum corneum to expose the stratum corneum to the test material. After 60 minutes, the test material was completely removed by washing. Then, post-incubation was performed for 42 hours. In the process of the post-incubation, a culture medium was replaced once after a lapse of 24 hours. After the post-incubation, a reaction with an MTT solution was performed for 3 hours using an MTT assay kit (MTT-100-JP manufactured by KURABO), and a formazan dye produced by mitochondrial metabolism was extracted to measure the OD value. Based on the measurement result, relative viability was calculated by comparison with a negative control (<5-G> described below).

O=C([O-])C[C@H](O)C[C@H](O)/C=C/c1c(C2CC2)nc2ccccc2c1-c1ccc(F)cc1.O=C([O-])C[C@H](O)C[C@H](O)/C=C/c1c(C2CC2)nc2ccccc2c1-c1ccc(F)cc1.[Ca+2] [pitavastatin calcium]
relative viability (vs negative control DPBS): reduced in a manner dependent on the concentration
